Consider five molecules from US20100009936A1, “CHEMICAL COMPOUNDS” (PRAECIS PHARMACEUTICALS INCORPORATED, priority 2006, published 2010).

As usually defined, the pIC50 is the negative decadic logarithm of the IC50, by convention in mol/L. A high value points to a low IC50.

Assay [1] has as its target T1, S1P-1 receptor (Homo sapiens, UniProt P21453). As to the kind of experiment: [33P]sphingosine 1-phosphate binding assay, S1P-1 receptor. Also noted: expressed in transfected cells; host or cells: HEK 293 T cells (transient, FuGENE 6), crude membranes. How it is done:
In certain embodiments, the compounds of the invention selective for the S1P-1 receptor as compared to one or more of the other S1P receptors. For example, one set of compounds includes compounds which are selective for the S1P-1 receptor relative to the S1P-3 receptor. […] The EC50 of a compound is determined using the ^35S-GTPγS binding assay, as described in WO 03/061567, the entire contents of which are incorporated herein by reference. […] The IC50 of a compound is determined using the [^33P]sphingosine 1-phosphate binding assay, as described in Davis, M. D. et al., Sphingosine 1-Phosphate Analogs as Receptor Antagonists. J. Biol. Chem. (2005) 280:9833-9841, the entire contents of which are incorporated herein by this reference.
The terms “agonist” or “S1P-1 receptor agonist” as used herein include the compounds described herein which bind to and/or agonize the S1P-1 receptor. […] The compounds' IC50 for the S1P-1 receptor can be measured using the binding assays described in Example 13 or those described in WO 03/061567.
The ability of several of the compounds described herein to bind to the S1P-1 or S1P-3 receptor was also tested as follows.
For the membrane preparation, plasmid DNA was transfected into HEK 293 T cells using the FuGENE 6 transfection protocol (publicly available from Roche). […] Protein concentration was determined spectroscopically by Bradford protein assay. […]

The next assay has as its target T2, human S1P3 receptor (Homo sapiens, UniProt Q99500).
T2 construct: expressed in transfected cells; membranes
As to the kind of experiment: GTPgS assay, S1P3. In kind it is biochemical. The settings on record: [35S]-GTPgS, membranes of RBL cells expressing human S1P3; tested as trifluoracetic acid salt; read-out: pEC50 in the S1P3 assay (converted). The method, then:
(§1) For membrane preparations all steps were performed at 4° C. Rat hepatoma cells stably expressing the human S1P1 receptor or Rat Basophilic Leukaemia cells (RBL) stably expressing human S1P3 receptor were grown to 80% confluency before being harvested into 10 ml Phospho-Buffered Saline (PBS) and centrifuged at 1200 rpm for 5 minutes. After removal of the supernatant, the pellet was re-suspended and cells were homogenised within a glass Waring blender for 2 bursts of 15 secs in 200 mls of buffer (50 mM HEPES, […], 25 ug/ml bacitracin, 1 mM EDTA, 1 mM PMSF, 2 uM pepstatin A). The blender was plunged into ice for 5 mins after the first burst and 10-40 mins after the final burst to allow foam to dissipate. The material was then spun at 500 g for 20 mins and the supernatant spun for 36 mins at 48,000 g. The pellet was resuspended in the same buffer as above but without PMSF and pepstatin A. The material was then forced through a 0.6 mm needle, made up to the required volume, (usually ×4 the volume of the original cell pellet), aliquoted and stored frozen at −80° C. […]
(§2) After 30 minutes pre-coupling at 4° C. the bead and membrane suspension was dispensed into a white Greiner polypropylene LV384-well plate (5 ul/well), containing 0.1 ul of test compound or S1P. […] The final assay cocktail (10.1 ul) was centrifuged at 1000 rpm for 5 minutes then read immediately on a Viewlux. […]
In general terms: Binding of GTPγS marks nucleotide exchange on a G protein.

Assay [2] concerns the target T1, S1P-1 receptor. As to the kind of experiment: GTPgS assay, S1P1. The settings on record: [35S]-GTPgS, membranes of rat hepatoma cells expressing human S1P1; tested as trifluoracetic acid salt; read-out: pEC50 in the S1P1 assay (converted). Also noted: expressed in transfected cells; membranes. In kind it is biochemical. The method, then:
as §1, §2

In another assay the test system is C57Bl/6 mice. As to the kind of experiment: Lymphopenia assay in mice. It is filed as in vivo. The settings on record: 10 mg/Kg oral dose, male C57Bl/6 mice, blood taken after 6 hours. The method, then: Several of the compounds described herein were evaluated for the ability to induce lymphopenia in mice. Male C57Bl/6 mice were divided into groups of three. A control group received the 3% BSA vehicle only. The other groups received a single dose of either a specified dose of test compound in vehicle administered orally (PO) and intravenously (IV). After 6 hours, the mice were anesthetized with isoflurane and approximately 250 μL of blood was removed from the retroorbital sinus and collected in an EDTA microtainer, mixed with an anticoagulant and placed on a tilt table until complete blood count (CBC) analysis.

pIC50: −log10 of the molar value.

T1 sequence (P21453 whole entry): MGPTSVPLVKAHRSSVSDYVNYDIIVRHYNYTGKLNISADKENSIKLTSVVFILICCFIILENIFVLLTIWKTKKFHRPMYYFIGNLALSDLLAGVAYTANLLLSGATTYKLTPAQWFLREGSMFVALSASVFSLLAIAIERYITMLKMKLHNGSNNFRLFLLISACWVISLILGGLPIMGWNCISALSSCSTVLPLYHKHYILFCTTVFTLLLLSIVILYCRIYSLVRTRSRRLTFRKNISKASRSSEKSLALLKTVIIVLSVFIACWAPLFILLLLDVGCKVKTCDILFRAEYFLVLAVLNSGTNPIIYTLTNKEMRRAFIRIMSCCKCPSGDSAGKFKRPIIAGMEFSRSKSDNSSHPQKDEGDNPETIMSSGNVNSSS
T2 sequence (Q99500 whole entry): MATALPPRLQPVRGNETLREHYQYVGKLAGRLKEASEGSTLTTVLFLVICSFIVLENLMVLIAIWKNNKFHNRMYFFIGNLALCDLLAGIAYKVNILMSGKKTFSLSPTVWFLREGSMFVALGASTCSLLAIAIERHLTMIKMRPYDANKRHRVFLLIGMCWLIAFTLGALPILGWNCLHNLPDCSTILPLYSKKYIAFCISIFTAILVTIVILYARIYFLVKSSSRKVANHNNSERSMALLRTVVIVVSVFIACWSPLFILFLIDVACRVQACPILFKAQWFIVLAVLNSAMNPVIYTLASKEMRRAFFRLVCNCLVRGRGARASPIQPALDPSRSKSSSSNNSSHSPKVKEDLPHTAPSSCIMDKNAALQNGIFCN

As for `C[C@](N)(COP(=O)(O)O)c1nnc(-c2ccc(OCCCCc3ccccc3)c(C(F)(F)F)c2)s1`, the pIC50 on S1P-1 receptor [1] is 8.49. For the molecule `CCCCCCCCOc1ccc(-c2nnc([C@@](C)(N)COP(=O)(O)O)s2)cc1C(F)(F)F` [(S)-2-Amino-2-(5-(4-(octyloxy)-3-(trifluoromethyl)phenyl)-1,3,4-thiadiazol-2-yl)propyl dihydrogen phosphate], the EC50 was 794 nM at human S1P3 receptor and 0.631 nM at S1P-1 receptor [2]. `CCCCCCCCOc1ccc(-c2nnc([C@@](C)(N)CO)s2)cc1C(F)(F)F` [(S)-2-amino-2-(5-(4-(octyloxy)-3-(trifluoromethyl)phenyl)-1,3,4-thiadiazol-2-yl)propan-1-ol] came in with a lymphopenia with C57Bl/6 mice of 77%. In the assay on C57Bl/6 mice, `CCCCCCCCOc1ccc(-c2cnc([C@@](C)(N)CO)s2)cc1C(F)(F)F` [(S)-2-amino-2-(5-(4-(octyloxy)-3-(trifluoromethyl)phenyl)thiazol-2-yl)propan-1-ol] yielded a lymphopenia of 75%. Turning to `CCCCCCCCOc1ccc(-c2cnc([C@@](C)(N)COP(=O)(O)O)s2)cc1C(F)(F)F` [(S)-2-amino-2-(5-(4-(octyloxy)-3-(trifluoromethyl)phenyl)thiazol-2-yl)propyl dihydrogen phosphate], the EC50 at human S1P3 receptor was 316 nM; at S1P-1 receptor [2] it was 3.16 nM.
